The values below come from patent publication US5053006A, “Method for the permanent occlusion of arteries” (priority 1990, dated 1991).

SMILES strings stand for the structures. Values joined by “and” are separate entries in the source; they are usually repeats but may differ in a detail not shown here. Identical values can stand only once.

One series concerns corneal cholesterol. Put plainly: Corneal cholesterol content after photothrombosis (Example 6). In kind it is in vivo, New Zealand white rabbit. Conditions: for Corneal Cholesterol Concentration, Difference Between Treated and Untreated Eyes / Corneal Cholesterol Concentration, Difference Between Treated and Untreated Eyes, %: individual rabbit. An excerpt: Nine New Zealand white strain rabbits weighting 1 to 2 kg were rendered hypercholesterolemic by foods that contained high levels of cholesterol, as described in Stock et. al., Arch. Ophthalmol., 103:726-730, 1985; and Mendelsohn et al., Ophthalmic Surg., 17:502-508, 1986. Eight days after commencement of the high-cholesterol diet, corneal sutures were implanted in both eyes according to the surgical procedure described in Mendelsohn et al., Ophthalmic Surg., 17:502-508, 1986.
On day 22, slit-lamp photographs and fluorescein angiograms were obtained of all corneas (Mendelsohn et al., Arch. Ophthalmol., 105:983-988, 1987, the disclosure of which is hereby incorporated by reference and relied upon). On the next day, one eye of each rabbit underwent laser surgery, with the other eye serving as a comparative control. Rose bengal dye was dissolved at a concentration of 30 mg/ml in 0.9% saline solution. For the initial injection, the dye solution was administered at a total body concentration of 45 mg/kg. For the two animals in which the procedure took longer than 25 minutes, a booster injection of 15 mg/kg was administered. Irradiations of corneal vessels were carried out with an argon ion laser (Model 95, Cooper Laser-Sonica, Sunnyvale, Calif.) operated in the TEM00 mode at 514.5 nm. The beam was directed toward an aluminized mechanical shutter (AW Vincent Associates, Rochester, NY), which reflected it at a right angle through a 514.5-nm custom interference filter with a transmittance of 92% (Omega Optical, Brattleboro, VT) and then through a fused silica lens with a focal length of 7.5 cm for focusing into a 2.5-m fiberoptic cable 400 μm in diameter. In the optical fiber, the gaussian input beam profile was converted into an output beam. The output was collimated by a plano convex lens 3.5 cm in focal length and focused with a plano convex lens with a focal length of 1.0 cm. The lenses were mounted in a beam telescope attached to an X-Y positioning device (Daedal Inc., Harrison City, Pa.). The beam diameter was measured with a calibrated reticle in the ocular of a ×20 operating microscope. By observing, through a 514.5-nm rejection filter, the fluorescence of a white card impregnated with rhodamine B, the minimum diameter of the organe fluorescent spot at the focal point was determined to be 63 μm. Combining the transmission efficiencies of the three uncoated lenses (92% per lens, 76% total transmission) with those of the optical fiber and interference filter yielded a system transmission efficiency of 61.5%. This reduced the incident power level of the laser from 215 mW to an effective power level of 132 mW; this corresponded to an incident intensity at the focal point of 4.23 kW/cm^2 . During shutter closure, irradiations were carried out in 0.2-s intervals. When the shutter was opened, the low-power beam, which was reflected off an optical flat and through the optical system, was used for aligning the next vessel selected for irradiation.
One eye of each rabbit was subjected to laser applications that were directed toward the vascular branching points of the limbal and corneal feeder vessels adjacent to the sites of lipid deposits. […] Initially, the irradiated segment appeared yellow-orange because the fluorescence of rose bengal had been absorbed into erythrocyte plasma membranes and plasma proteins. As platelets accumulated, the fluorescence became yellowish and less intense. […]

In series [1] the test system is middle cerebral artery (MCA). Description: He-Ne laser photochemically induced MCA thrombosis (Example 7). Type of series: in vivo, rat (male Sprague-Dawley). The procedure: Normally fed male Sprague-Dawley rats weighting 280-330 gm were used. Anesthesia was induced with 4% halothane and maintained with 1.5% halothane, 70% N2 O and a balance of O2 delivered through a closely fitting face mask. Polyethylene catheters were inserted retrogradely into the right external carotid artery and right femoral artery and vein. The partial pressures of O2 and CO2 and the arterial pH were measured frequently. Rectal temperature was maintained at 37° C. by means of a heating pad.
Rats were mounted on a stereotaxic frame and the right MCA was exposed by a modified subtemporal approach. A portion of the jaw was removed, and the masseter muscle was retracted downward to facilitate exposure of the MCA. The mandibular joint was kept intact so as not to disturb normal feeding. To produce MCA occlusion in these studies, a low power He-Ne laser operating in the TEM^*01 (doughnut) mode at 0.8 mW and at a wavelength of 543.5 nm (PMS Electro-Optics, Boulder, CO.) was used. The efficiency of this laser in interacting with rose bengal dye is appreciable (58%) in that its emission wavelength is near the absorption maximum of rose bengal in tissue (562 nm). The animal was moutned in a stereotaxic frame, and its right side was tilted upward by 35° in order for the laser beam to strike the proximal MCA tangentially. The ring-shaped beam was focused transversely onto the exposed MCA by two crossed cylindrical lenses of 1- and 2-inch focal length. The resulting focused spot, rectangular in shape, was ~200 μm wide (spanning the diameter of the MCA perpendicular to its axis) and 40 μm high (parallel to the MCA axis).
MCA thrombosis was induced in two steps. First, the linear beam was focused transversely on the MCA segment just distal to the rhinal branch. The intensity of laser irradiation at the focal site was 10 W/cm^2. Rose bengal was then injected intravenously (30 mg/ml in saline, 0.67 ml/kg bw weight). An orange fluorescence was immediately observed in the irradiated MCA segment, and a white thrombus began to form within the fluorescent segment and gradually elongated rostrally. […]

The conditions of series [2]: rat, in vivo; cited from earlier work.

With `O=C([O-])c1c(Cl)c(Cl)c(Cl)c(Cl)c1-c1c2cc(I)c(=O)c(I)c-2oc2c(I)c([O-])c(I)cc12.[Na+].[Na+]` [rose bengal], the “Corneal Cholesterol Concentration, Difference Between Treated and Untreated Eyes” value in the series with corneal cholesterol (45 mg/kg) was 0.144 g of Cholesterol/100 g of Corn and 0.007 g of Cholesterol/100 g of Corn and 0.076 g of Cholesterol/100 g of Corn and 0.149 g of Cholesterol/100 g of Corn and 0.105 g of Cholesterol/100 g of Corn and 0.129 g of Cholesterol/100 g of Corn and 0.058 g of Cholesterol/100 g of Corn; with corneal cholesterol (60 mg/kg (45 plus booster 15)), 0.219 g of Cholesterol/100 g of Corn and 0.206 g of Cholesterol/100 g of Corn. Moreover, the “Corneal Cholesterol Concentration, Difference Between Treated and Untreated Eyes, %” value with corneal cholesterol (45 mg/kg) was -36.5% and -2.5% and -24.3% and -41.7% and -29.1% and -42.0% and -21.9%; in the series on corneal cholesterol (60 mg/kg (45 plus booster 15)), -58.6% and -51.8%. In the series with corneal cholesterol (laser-treated vs control eyes), the “average reduction of corneal cholesterol content” value is recorded as 36%. In addition, in series [1] (30 mg/ml, 0.67 ml/kg i.v., 543.5 nm He-Ne, first irradiation), the “time to complete MCA occlusion” value was ≤ 10 min. The thrombus length result in series [1] (end of second irradiation) was “about 1.2 mm”; in series [1] (first irradiation), ~ 400 μm. Moreover, the half-life in blood result in series [2] is listed as “two”.
